Data on 6 compounds can be found in patent US7855310B2, “AH receptor antagonists” (SYMRISE GmbH & Co. KG, priority 2006, dated 2010).

Molecules are shown by their SMILES.

The nature of series [1]: Light stability test (solar simulator, HPLC quantification). In kind it is physicochemical. The conditions noted are these: wt. % based on sum E isomer + Z isomer; for Degradation after 2 h: solar simulator 40 W/m^2, 2 h; for Degradation after 4 h: solar simulator 40 W/m^2, 4 h. As for the experimental part: 20 μl of a 1-3 wt. % solution of each of the test compounds of formula (I) in a low-volatility solvent (e.g. isopropyl myristate, miglyol or glycerol) are distributed uniformly over microscope slides using a pipette. These loaded slides are then irradiated in a solar simulator with an intensity of 40 W/m^2 (for 2 h or 4 h in each case).
When the irradiation has ended, the slides are each separately laid in a glass dish containing an organic solvent (methanol, isopropanol, etc.) and the organic substances present thereon are detached in an ultrasonic bath. The resulting solutions are each transferred to a 10 ml or 25 ml volumetric flask and made up to the calibration mark with solvent. Non-irradiated slides are treated likewise as references.
The samples (contents of the respective volumetric flasks) are evaluated via HPLC quantification. These values are compared with the non-irradiated references and the degradation rate during irradiation is reported in [wt. %] per unit time, based on the sum [E isomer+Z isomer].

Another series concerns the target T1, AhR (Homo sapiens, UniProt P35869).
T1 construct: endogenous in cells; host or cells: HaCaT keratinocytes
T1 sequence (P35869 11-848): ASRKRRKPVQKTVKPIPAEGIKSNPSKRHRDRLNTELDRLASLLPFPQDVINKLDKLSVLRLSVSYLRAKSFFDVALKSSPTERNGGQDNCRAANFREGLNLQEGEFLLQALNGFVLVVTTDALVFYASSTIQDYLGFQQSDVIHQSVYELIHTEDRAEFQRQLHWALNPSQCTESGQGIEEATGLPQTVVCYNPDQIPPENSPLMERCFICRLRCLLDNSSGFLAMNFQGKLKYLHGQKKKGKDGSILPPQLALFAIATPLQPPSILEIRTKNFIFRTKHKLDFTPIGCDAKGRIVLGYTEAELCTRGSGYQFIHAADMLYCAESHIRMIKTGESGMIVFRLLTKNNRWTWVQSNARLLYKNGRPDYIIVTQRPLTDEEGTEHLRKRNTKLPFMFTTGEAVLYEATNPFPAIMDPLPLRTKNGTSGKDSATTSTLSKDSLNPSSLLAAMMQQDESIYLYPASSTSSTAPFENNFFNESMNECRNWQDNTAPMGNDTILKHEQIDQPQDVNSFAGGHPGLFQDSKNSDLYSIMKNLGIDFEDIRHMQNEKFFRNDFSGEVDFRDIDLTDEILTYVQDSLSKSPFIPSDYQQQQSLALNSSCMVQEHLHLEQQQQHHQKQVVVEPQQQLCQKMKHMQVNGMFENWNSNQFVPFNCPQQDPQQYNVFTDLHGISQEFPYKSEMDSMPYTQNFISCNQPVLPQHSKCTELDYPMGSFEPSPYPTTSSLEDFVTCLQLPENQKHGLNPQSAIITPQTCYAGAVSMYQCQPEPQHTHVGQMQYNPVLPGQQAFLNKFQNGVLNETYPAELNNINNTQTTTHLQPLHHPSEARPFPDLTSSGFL
The experiment in a line: Fluorescence microscopy of GFP-coupled AhR translocation in HaCaT cells transfected with pEGFP-AhR. The format is cell-based. The conditions noted are these: in the presence and absence of UVB light. From the text:
HaCaT keratinocytes were cultivated in DMEM containing 10% of foetal calf serum. The cells were irradiated with UVB in PBS (phosphate buffered saline). For irradiation with UVB we used a TL20W/12RS lamp, which contains four parallel tubes (Philips, Eindhoven, The Netherlands) and emits the bulk of its energy in the UVB range (290-320 nm). The emission peak of the lamp is at 310 nm. Control cells were subjected to the same treatment but were not irradiated. To inhibit the AhR, the cells were treated with the test substances 1 h prior to irradiation.
HaCaT cells were plated out on compartmentalized microscope slides at a cell density of 5×10^4 cells/compartment. Some were pretreated for 1 h with the test substances. After 24 h these were transfected with plasmid pEGFP-AhR by means of the FuGene 6 transfection reagent (Roche, Mannheim, Germany) according to the manufacturer's instructions. After a further 24 h the transfected cells were irradiated with 100 J/m^2 of UVB. After 40 min the cells were fixed for 10 min with 4% paraformaldehyde and washed with PBS. The slides were dried and covered with Vectashield mounting medium (Vector Laboratories, Burlingame, Calif., USA). The GFP-coupled AhR was visualized by means of a fluorescence microscope (Olympus, Hamburg, Germany) and photographed with a ColorView XS digital camera (Olympus).

On to `Oc1ccc(C=Cc2cc(O)cc(O)c2)cc1` (mixture of isomers) [Resveratrol (E/Z mixture), 3,5,4′-trihydroxystilbene, reference compound], for which, in series [1], the “Degradation after 2 h” value is reported as 77% and the “Degradation after 4 h” value is recorded as 84%.

For `COc1cc(-c2cc(=O)c3ccccc3o2)ccc1[N+](=O)[O-]` [3-methoxy-4-nitroflavone], at AhR, the “translocation of the AhR into the cell nucleus” value was “inhibited the translocation of the AhR into the cell nucleus”. For the compound `COc1ccc(/C=C2/C(=O)c3ccccc3C2(C)C)cc1OC` [(Ib)], in series [1], the “Degradation after 2 h” value is given as 4% and the “Degradation after 4 h” value is given as 15%. For `CCCCOc1cc2c(cc1C)C(=O)/C(=C/c1ccc(OC)cc1)C2(C)C` [(Id)], in that order: 7% and 11%.

Turning to `COc1cc2c(cc1OC)C(C)(C)/C(=C\c1ccccc1)C2=O` [Compound (Ia)], in series [1], the “Degradation after 2 h” value is on record as 7% and the “Degradation after 4 h” value is 7%.

In the case of `CC1=C(/C=C/C(C)=C/C=C/C(C)=C/C(=O)O)C(C)(C)CCC1` [Vitamin A acid, reference compound], in series [1], the “Degradation after 2 h” value is reported as 95% and the “Degradation after 4 h” value is 100%.
